Source: patent US20260250325A1, “Antiviral Polypeptide Membrane Fusion Inhibitor, and Preparation Method and Application Thereof” (priority 2025, published 2026)
Read-outs that look alike come from different tables or passages of the source. Where a SMILES comes first, the peptide text is derived from it. [ ]: non-standard residue; d: D form. The star is where a group is joined. ξ: configuration not given here. Succinyl(4-O-cholesteryl) = CC(C)CCC[C@@H](C)[C@H]1CC[C@H]2[C@@H]3CC=C4C[C@@H](OC(=O)CCC(=O)*)CC[C@]4(C)[C@H]3CC[C@]12C; ξD = NC(CC(=O)O)C(=O)O

What was measured:
[1] = Cytotoxicity test in HEp-2 cells (CCK8 cell viability); type: cell-based; settings: human
Method: (§1) Human Epithelial Pharyngeal Carcinoma Cells (HEp-2) were from the American Type Culture Collection (ATCC), with a catalog number CCL-23. The cells were cultured in a DMEM culture solution in which 10% fetal bovine serum, 1% sodium pyruvate, 1% nonessential amino acids, 2 mM glutamine, 100 U/mL penicillin, and 100 μg/mL streptomycin were added. The RSV A long virus strain was from the ATCC, with a catalog number VR-26.
A cytotoxicity test and an antiviral test were performed in parallel. The HEp-2 cells were inoculated in the microplate at a density of 30,000 cells per well, and cultured overnight in the 37° C. incubator with 5% CO2. On the next day, the diluted test sample was added. The cell control (cells, without compound treatment) and a culture solution control (culture solution only, without cell or compound treatment) were set. A final concentration of DMSO in the culture solution was 0.5%. The cells were cultured for 1 day in the 37° C. incubator with 5% CO2. Cell viability was detected by using a cell viability detection kit CCK8.
(§2) The raw data for plaque counts and cell viability tests were used for analyzing the antiviral activity and cytotoxicity of the test samples, respectively. A calculation formula was shown as follows.
cell survival rate=(sample value-culture medium control average value)/(cell control average value-culture medium control average value)×100
(§3) Non-linear fitting analysis was performed on the inhibition rate of the sample by using GraphPad Prism (version 10), so as to calculate the IC50 and CC50 values for the sample.
CC50: in the in-vitro antiviral activity experiment, CC50 was used to measure the toxicity of the compound to be tested to the Hep-2 cells. To be precise, when the compound to be tested was at a specific concentration, 50% of the Hep-2 cells was caused to die, and this concentration was defined as the CC50. A fitting formula was log (inhibitor) vs. response-Variable slope (four parameters).

[2] = test system: RSV A long virus strain; type: cell-based
Method: In this embodiment, an RSV-A long virus strain was used as an infection virus in the present disclosure. The anti-RSV activity of the synthesized polypeptide was determined through CPE detection.
The inhibitory activity of the compounds of Table 1-1-Table 1-5, positive polypeptide in Table 1-11, and positive control T-118 against the RSV-A long virus strain was detected.
as §1
This study used a plaque reduction experiment to detect the in-vitro activity of a test sample against the RSV A long virus strain. The test sample and a control compound were tested at 8 concentrations in duplicated wells. The HEp-2 cells were digested with trypsin and then diluted to a concentration of 300,000 cells per milliliter by using an experimental culture solution. The diluted cells were added to a 96-well cell test board, with 100 μL per well, corresponding to 30000 cells per well. The cells were cultured overnight in a 37° C. incubator with 5% CO2. On the second day, the test sample was diluted in an experimental culture medium at a fold ratio. The sample diluted at a fold ratio and an equal volume of virus (100 PFU per well) were well mixed and incubated at 37° C. in 5% CO2 for 1 h. Then, the culture solution in the 96-well cell test board was discarded, the sample virus mixed solution (200 μL) was added to the 96-well cell culture plate, and incubated at 37° C. in 5% CO2 for 2 hours. After 2 h, the sample virus mixed solution was discarded, and 200 μL of maintenance culture medium containing 0.8% CMC and the corresponding concentration of the test sample was added. A cell control (cells, without compound treatment or viral infection) and a viral control (cell infection virus, without compound treatment) were set. The cells were cultured for 1 day in the 37° C. incubator with 5% CO2. One day after viral infection, the culture medium was discarded, the cells were fixed with 4% paraformaldehyde, and then permeabilization was performed with 0.5% Triton X-100. After the plate was washed with DPBS, an RSV-specific antibody (RSV antibody, diluted 1:3000) was added and incubated at 37° C. for 1 h. Then, a secondary antibody (donkey anti-goat IgG, diluted 1:500) and incubated at 37° C. for 1 h. The secondary antibody was discarded, a TrueBlue solution was added, dyeing was performed for 10 min; and the plate was washed with running water and then air-dried, and the number of spots in each well was counted by using a microplate imaging counter. Raw data was used for calculating the antiviral activity of the samples.
as §2
% inhibition rate=100−(sample value-cell control average value)/(virus control average value-cell control average value)×100%
as §3
IC50: in an in-vitro antiviral activity experiment, IC50 represented an inhibition ability indicator of a compound to be tested against the Hep-2 cells infected by the RSV A long virus strain.

[3] = HEp-2 cells, CCK8, 1 day, read-out: CC50

Row | Structure (SMILES) | CC50 at 1 day [1] [µM] | IC50 [2] [µM] | CC50 at 1 day [1, 3] [µM] | IC50 ([2]; RSV A long virus strain, HEp-2 cells, plaque reduction, 1 day, read-out: IC50) [µM]
1 | CC[C@H](C)[C@H](NC(=O)[C@H](CO)NC(=O)[C@H](C)NC(=O)[C@H](CC(=O)O)NC(=O)[C@H](Cc1ccccc1)NC(C)=O)C(=O)N[C@@H](CCC(=O)O)C(=O)N[C@@H](CCC(=O)O)C(=O)N[C@H](C(=O)N[C@@H](CC(N)=O)C(=O)N[C@@H](CCCNC(=N)N)C(=O)N[C@@H](CCCNC(=N)N)C(=O)N[C@H](C(=O)N[C@@H](CCC(=O)O)C(=O)N[C@@H](CCC(=O)O)C(=O)N[C@@H](CO)C(=O)N[C@@H](CC(C)C)C(=O)N[C@@H](CCCNC(=N)N)C(=O)N[C@@H](CCCNC(=N)N)C(=O)N[C@H](C(=O)N[C@@H](CCC(=O)O)C(=O)N[C@@H](CCC(=O)O)C(=O)N[C@@H](CO)C(=O)N[C@@H](CC(=O)O)C(=O)N[C@@H](CCCNC(=N)N)C(=O)N[C@@H](CCCNC(=N)N)C(=O)N[C@@H](CC(C)C)C(=O)N[C@@H](CCC(=O)O)C(=O)N[C@H](C(=O)N[C@@H](CC(N)=O)C(=O)N[C@@H](CCCCN)C(=O)N[C@@H](CCCCN)C(=O)N[C@@H](C)C(N)=O)C(C)C)[C@@H](C)CC)[C@@H](C)CC)C(C)C [Compound 1] (Ac-FDASIEEVNRRIEESLRRIEESDRRLEVNKKA-NH2) | > 8 | 1.36 | – | –
2 | CC[C@H](C)[C@H](NC(=O)[C@H](CCCCN)NC(=O)[C@H](CCCCN)NC(=O)[C@H](CC(C)C)NC(=O)[C@@H](NC(=O)[C@H](CCC(=O)O)NC(=O)[C@H](CCC(=O)O)NC(=O)[C@@H](NC(=O)[C@H](CCCCN)NC(=O)[C@H](CCC(=O)O)NC(=O)[C@H](CC(N)=O)NC(=O)[C@@H](NC(=O)[C@H](CCC(=O)O)NC(=O)[C@H](CC(N)=O)NC(=O)[C@@H](NC(=O)[C@H](CCCCN)NC(=O)[C@H](CCC(N)=O)NC(=O)[C@H](CC(N)=O)NC(=O)[C@H](Cc1ccccc1)NC(=O)[C@H](CCC(=O)O)NC(=O)[C@H](CC(=O)O)NC(=O)[C@H](CC(=O)O)NC(C)=O)[C@@H](C)CC)C(C)C)[C@@H](C)CC)[C@@H](C)CC)C(=O)N[C@@H](CCC(=O)O)C(=O)N[C@@H](CCC(=O)O)C(=O)N[C@@H](CO)C(=O)N[C@@H](CC(=O)O)C(=O)N[C@@H](CCCNC(=N)N)C(=O)N[C@@H](CCCCN)C(=O)N[C@@H](CC(C)C)C(=O)N[C@@H](CCC(=O)O)C(=O)N[C@@H](CCC(=O)O)C(=O)N[C@@H](CO)C(=O)N[C@@H](CC(=O)O)C(=O)N[C@@H](CCCCN)C(=O)N[C@@H](CCCCN)C(=O)N[C@@H](C)C(N)=O [Compound 2] (Ac-DDEFNQKINEVNEKIEEILKKIEESDRKLEESDKKA-NH2) | > 8 | > 8 | – | –
3 | CC[C@H](C)[C@H](NC(=O)[C@H](CCCCN)NC(=O)[C@H](CCCCN)NC(=O)[C@H](CC(C)C)NC(=O)[C@H](CO)NC(=O)[C@H](CCC(=O)O)NC(=O)[C@H](CCC(=O)O)NC(=O)[C@@H](NC(=O)[C@H](CCCCN)NC(=O)[C@H](CCCCN)NC(=O)[C@H](CC(N)=O)NC(=O)[C@@H](NC(=O)[C@H](CCC(=O)O)NC(=O)[C@H](CCC(=O)O)NC(=O)[C@@H](NC(=O)[C@H](CCCCN)NC(=O)[C@H](CCCCN)NC(=O)[C@H](CCCCN)NC(=O)[C@H](CC(=O)O)NC(=O)[C@H](Cc1ccccc1)NC(=O)[C@H](CCC(=O)O)NC(=O)[C@H](CC(=O)O)NC(C)=O)[C@@H](C)CC)C(C)C)[C@@H](C)CC)C(=O)N[C@@H](CCC(=O)O)C(=O)N[C@@H](CCC(=O)O)C(=O)N[C@@H](CO)C(=O)N[C@@H](CC(=O)O)C(=O)N[C@@H](CCCCN)C(=O)N[C@@H](CCCCN)C(=O)N[C@@H](CC(C)C)C(=O)N[C@@H](CCC(=O)O)C(=O)N[C@@H](CCC(=O)O)C(=O)N[C@H](C(N)=O)C(C)C [Compound 3] (Ac-DEFDKKKIEEVNKKIEESLKKIEESDKKLEEV-NH2) | – | – | > 8 | 4.43
4 | CC[C@H](C)[C@H](NC(=O)[C@H](CCCCN)NC(=O)[C@H](CCCCN)NC(=O)[C@H](CC(C)C)NC(=O)[C@H](CO)NC(=O)[C@H](CCC(=O)O)NC(=O)[C@H](CCC(=O)O)NC(=O)[C@@H](NC(=O)[C@H](CCCCN)NC(=O)[C@H](CCCCN)NC(=O)[C@H](CC(N)=O)NC(=O)[C@@H](NC(=O)[C@H](CCC(=O)O)NC(=O)[C@H](CCC(=O)O)NC(=O)[C@@H](NC(=O)[C@H](CCCCN)NC(=O)[C@H](CCCCN)NC(=O)[C@H](CCCCN)NC(=O)[C@H](CC(=O)O)NC(=O)[C@H](Cc1ccccc1)NC(=O)[C@H](CCC(=O)O)NC(=O)C(CC(=O)O)NC(C)=O)[C@@H](C)CC)C(C)C)[C@@H](C)CC)C(=O)N[C@@H](CCC(=O)O)C(=O)N[C@@H](CCC(=O)O)C(=O)N[C@@H](CO)C(=O)N[C@@H](CC(=O)O)C(=O)N[C@@H](CCCCN)C(=O)N[C@@H](CCCCN)C(=O)N[C@@H](CC(C)C)C(=O)N[C@@H](CCC(=O)O)C(=O)N[C@@H](CCC(=O)O)C(=O)N[C@H](C(=O)NCC(=O)N[C@@H](CO)C(=O)NCC(=O)N[C@@H](CO)C(=O)NCC(=O)N[C@@H](CCCCNC(=O)CCC(=O)O[C@H]1CC[C@@]2(C)C(=CC[C@H]3[C@@H]4CC[C@H]([C@H](C)CCCC(C)C)[C@@]4(C)CC[C@@H]32)C1)C(N)=O)C(C)C (some centres unmarked) [Compound 18] (Ac-[ξD]EFDKKKIEEVNKKIEESLKKIEESDKKLEEVGSGSGK(Succinyl(4-O-cholesteryl))-NH2) | – | – | 6.4 | –
5 | CC[C@H](C)[C@H](NC(=O)[C@H](CCCCN)NC(=O)[C@H](CCCCN)NC(=O)[C@H](CC(C)C)NC(=O)[C@H](CO)NC(=O)[C@H](CCC(=O)O)NC(=O)[C@H](CCC(=O)O)NC(=O)[C@@H](NC(=O)[C@H](CCCCN)NC(=O)[C@H](CCCCN)NC(=O)[C@H](CC(N)=O)NC(=O)[C@@H](NC(=O)[C@H](CCC(=O)O)NC(=O)[C@H](CCC(=O)O)NC(=O)[C@@H](NC(=O)[C@H](CCCCN)NC(=O)[C@H](CCCCN)NC(=O)[C@H](CCCCN)NC(=O)[C@H](CC(=O)O)NC(=O)[C@H](Cc1ccccc1)NC(=O)[C@H](CCC(=O)O)NC(=O)[C@H](CC(=O)O)NC(C)=O)[C@@H](C)CC)C(C)C)[C@@H](C)CC)C(=O)N[C@@H](CCC(=O)O)C(=O)N[C@@H](CCC(=O)O)C(=O)N[C@@H](CO)C(=O)N[C@@H](CC(=O)O)C(=O)N[C@@H](CCCCN)C(=O)N[C@@H](CCCCN)C(=O)N[C@@H](CC(C)C)C(=O)N[C@@H](CCC(=O)O)C(=O)N[C@@H](CCC(=O)O)C(=O)N[C@H](C(=O)N[C@@H](CCC(=O)O)C(=O)N[C@@H](C)C(=O)N[C@@H](C)C(=O)N[C@@H](C)C(=O)N[C@@H](CCCCN)C(=O)N[C@@H](CCCCNC(=O)CCC(=O)O[C@H]1CC[C@@]2(C)C(=CC[C@H]3[C@@H]4CC[C@H]([C@H](C)CCCC(C)C)[C@@]4(C)CC[C@@H]32)C1)C(N)=O)C(C)C [Compound 22] (Ac-DEFDKKKIEEVNKKIEESLKKIEESDKKLEEVEAAAKK(Succinyl(4-O-cholesteryl))-NH2) | – | – | 3.7 | –
